Reference: PubChem BioAssay AID1996
Values after ≈ are worked out from the molar mass of the structure shown.

Details: buffer; pH 7.4; 200.0 µM

Compound	solubility kinetic [µg/mL]
CN(C(=O)c1cc(-c2ccc3c(c2)OCO3)on1)c1ccccc1	6.8 (≈ 21.1 µM)
O=c1oc2ccccc2c(O)c1Cc1cc(Cl)c2cccnc2c1O	> 53.1
COCCNC(=O)c1ccc(CSc2nc3ccccc3s2)cc1	27.6 (≈ 77 µM)
CCCCn1nc(C(=O)N(C)CC(=O)Nc2ccc(F)c(F)c2F)ccc1=O	> 59.5
O=C(COc1cccnc1[N+](=O)[O-])NCc1ccccc1	> 43.1
COc1ccc(S(=O)(=O)N2CCCCCC2)cc1NC(=O)Cc1ccc(OC)c(OC)c1	22.1 (≈ 47.8 µM)
COc1ccccc1N1CCN(C(=O)c2ccco2)CC1	> 42.9
O=C(OCC(=O)c1cccs1)c1ccc([N+](=O)[O-])o1	16.4 (≈ 58.3 µM)
CCCCNC(=O)C(=O)NCCCn1ccnc1	> 37.8
O=C(OCc1cnc(Cl)s1)c1c(F)cccc1F	21.5 (≈ 74.2 µM)
CC1Oc2ccccc2N(CC(=O)Nc2ccccc2F)C1=O (stereo not given)	1.2 (≈ 3.82 µM)
O=C(CCl)N1c2ccccc2SCC1c1ccccc1 (stereo not given)	2.7 (≈ 8.89 µM)
Cc1ccc(S(=O)(=O)N2CCCCC2)cc1C(=O)NCc1ccc(S(N)(=O)=O)cc1	2.8 (≈ 6.2 µM)
COc1ccccc1N1CCN(Cc2ccc(O)c3ncccc23)CC1	7.5 (≈ 21.5 µM)
N#CCCN1C(=O)C2(OCCO2)c2ccccc21	> 36.6
COc1ccc(C(=O)NC2CC3CCCC(C2)N3CC(C)C)cc1 (stereo not given)	> 49.6
COc1ccc(NC(=O)C2C3C=CC(C3)C2C(=O)O)cc1 (stereo not given)	> 43.1
OCCNc1nc2ccccc2nc1NCCO	35.2 (≈ 142 µM)
O=C1CCCN1CCCNc1ncccc1[N+](=O)[O-]	> 39.6
Cc1c(Cl)c([N+](=O)[O-])nn1CC(=O)NCCCN1CCOCC1	> 51.9

Compound	solubility kinetic [µg/mL]
COc1ccccc1C1CCN(Cc2ccc(Cl)cc2Cl)CC1	< 0.8
Cc1cc(C)cc(-c2nnc(SCC(=O)NC3CC3)o2)c1	> 45.5
CC(C)(C)c1ccc(S(=O)(=O)N2CCN(C3CCCC3)CC2)cc1	< 0.4
Brc1cccc(C2Nc3cccc4cccc(c34)N2)c1	< 0.3
O=C(/C=C/c1ccc(Cl)c(Cl)c1)N1CCOCC1	35.5 (≈ 124 µM)
COc1cc(CCC(=O)Nc2nccs2)cc(OC)c1OC	> 48.4
CCOC(=O)c1ccc2nc(C)c(C)nc2c1	31.3 (≈ 136 µM)
O=C(Cc1ccsc1)Nc1ccc(Cl)cc1Cl	3.8 (≈ 13.3 µM)
CC1=C(C(=O)OC(C)C)C(c2ccc3c(c2)OCO3)NC(=O)N1 (stereo not given)	47.3 (≈ 149 µM)
Cc1cccc(C(=O)NCC(=O)N2CCN(c3ccccn3)CC2)c1	> 50.8
CCOC(=O)C(NC(=O)C1C(C)N1S(=O)(=O)c1ccc(C)cc1)C(=O)OCC (stereo not given)	> 61.9
Cn1c(=O)c([N+](=O)[O-])c(-n2cnc3ccccc32)c2ccccc21	> 48
CC(O)CNc1ccc([N+](=O)[O-])cc1S(=O)(=O)N1CCOCC1 (stereo not given)	> 51.8
CC(C)N(Cc1ccc(F)cc1)C(=O)c1cc2ccccc2oc1=O	0.8 (≈ 2.36 µM)
Cc1cccn2c(NC(=O)c3ccccc3F)c(-c3ccccc3)nc12	2.6 (≈ 7.53 µM)
CCCNC(=O)C1CC(=O)N(c2ccc(OCC)cc2)C1 (stereo not given)	> 43.6
COC(=O)Cc1ccc(NC(=S)NC2CC2)cc1	> 39.7
COc1cc2ncnc(NCc3ccccc3F)c2cc1OC	41.8 (≈ 133 µM)
Cc1ccc(CNc2cnccn2)s1	30 (≈ 146 µM)
CSCCNCc1c(C(=O)N2CCOCC2)nc2c(C)cccn12	46.1 (≈ 132 µM)

Other lines, results leading:

solubility kinetic [µg/mL]	Compound
2.6 (≈ 8.92 µM)	CC(C)C(=O)Nc1nc(-c2ccc([N+](=O)[O-])cc2)cs1
32.2 (≈ 111 µM)	Fc1ccc(CN2CCN(c3ncccn3)CC2)c(F)c1
> 47.6	CCN1C(=O)CC(N2CCN(c3cccc(OC)c3)CC2)C1=O (stereo not given)
4.2 (≈ 11.6 µM)	Cc1cc(C)c2[nH]c(C(=O)Nc3ccc(F)cc3Br)cc2c1
> 43.2	CC1SCC(NC(=O)c2ccccc2Cl)CS1 (stereo not given)
< 0.6	CCOC(=O)c1ccc(-c2ccc3c(c2)CCC3)nc1C
36.2 (≈ 127 µM)	Cc1ccc(OCC(O)CNCc2ccccc2)cc1C (stereo not given)
> 50.1	Cc1[nH]c(=O)[nH]c(=O)c1S(=O)(=O)Nc1ccc(F)c(Cl)c1
< 0.2	Cc1nc(Nc2cccc(F)c2)c2oc3ccccc3c2n1
> 45.8	COCCN1CC(C(=O)NCc2ncccc2C)CCC1=O (stereo not given)
40.7 (≈ 134 µM)	CCOC(=O)c1c(N)sc(C(=O)Nc2ccccc2)c1C
> 42.2	Cc1cc(C)c(S(=O)(=O)c2ccccc2F)c(=O)[nH]1
1.8 (≈ 4.28 µM)	Cc1ccc(S(=O)(=O)N2CCOCC2)cc1NC(=O)Nc1ccc([N+](=O)[O-])cc1
> 47.3	CN1C(=O)N(C)C(c2cccc([N+](=O)[O-])c2)C2=C1CCCC2=O (stereo not given)
46.5 (≈ 150 µM)	CN(C)C(CNC(=O)c1ccc2nccnc2c1)c1ccco1 (stereo not given)
2.7 (≈ 12.2 µM)	CC1=CC(=C(C#N)C#N)c2ccccc2N1C
37.8 (≈ 114 µM)	CC(C)c1ccc(NC(=O)CCCN2C(=O)NC(C)(C)C2=O)cc1
> 42.3	Cc1ccc(CNc2cc(C(=O)O)ccc2Cl)s1
< 0.3	O=C(Nc1ccccc1Cl)Nc1ccccc1Cl
24 (≈ 84.7 µM)	CC1(C)CC(=O)C=C(Nc2cccc(C(F)(F)F)c2)C1
